Columns and labels:
Test in all cases: normalised response (% of control), CellTox Green; higher = less cell death (100 = DMSO, 0 = benzethonium chloride kill control)
Details in all cases: incubation time: 72 h
[1] = system: HCC1599
In short: (§1)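 Breast cancer cell lines, seeded at 20 µl suspension per well, were incubated for 72 h in 384-well plates containing compound at 5 concentrations. These concentrations rose in 10-fold steps over a 10,000-fold range set for each compound. CellTox Green fluorescence (485/520 nm) was read, then CellTiter-Glo luminescence after 10 min at room temperature, and each plate was normalised to 0.1 % DMSO (100) and a positive kill control (0). Values are normalised signals, each at one concentration.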

[2] = system: Hs578T
In short: as §1

[3] = system: MCF-10A
In short: as §1

[4] = system: MDA-MB-231
In short: as §1

[5] = system: BT-549
In short: as §1

[6] = system: HCC1143
In short: as §1

[7] = system: DU-4475
In short: as §1

[8] = system: MDA-MB-453
In short: as §1

[9] = system: CAL-51
In short: as §1

[10] = system: MDA-MB-436
In short: as §1

[11] = system: HCC1937
In short: as §1

[12] = system: CAL-120
In short: as §1

[13] = system: CAL-85-1
In short: as §1

[14] = system: MDA-MB-468
In short: as §1

[15] = system: CAL-148
In short: as §1

[16] = system: MFM-223
In short: as §1

[17] = system: BT-474
In short: as §1

[18] = system: HDQ-P1
In short: as §1

For `COc1cccc2c1C(=O)c1c(O)c3c(c(O)c1C2=O)C[C@@](O)(C(=O)CO)C[C@@H]3O[C@H]1C[C@H](N)[C@H](O)[C@H](C)O1` [Doxorubicin] (1000 nM), the normalised response [1] was 149%, the normalised response [2] was 159% and the normalised response [3] was 129%. The normalised response [4] was 160%, the normalised response [5] was 185% and the normalised response [6] was 143%. For the same molecule, the normalised response [7] was 111%, the normalised response [8] was 130% and the normalised response [9] was 22.4%. The normalised response [10] was 126%, the normalised response [11] was 148% and the normalised response [12] was 92.7%. It also gave a normalised response [13] of 77.5%, a normalised response [14] of 363% and a normalised response [15] of 66.4%. It also gave a normalised response [16] of 68%, a normalised response [17] of 105% and a normalised response [18] of 120%.
`Cc1ccc(F)c(NC(=O)Nc2ccc(-c3cccc4[nH]nc(N)c34)cc2)c1` [Linifanib] (100 nM) showed a normalised response [1] of 106%, a normalised response [2] of 66.5% and a normalised response [3] of 107%. The normalised response [4] was 116%, the normalised response [5] was 110% and the normalised response [6] was 122%. The normalised response [7] was 107%, the normalised response [8] was 108% and the normalised response [9] was 101%. For the same molecule, the normalised response [10] was 66.4%, the normalised response [11] was 117% and the normalised response [12] was 101%. It also gave a normalised response [13] of 96.3%, a normalised response [14] of 66.5% and a normalised response [15] of 108%. It also gave a normalised response [16] of 103%, a normalised response [17] of 101% and a normalised response [18] of 112%.
`S=c1[nH]cnc2nc[nH]c12` [Mercaptopurine] (1000 nM) was tested, and the normalised response [1] was 92.1%, the normalised response [2] was 104% and the normalised response [3] was 108%. It also gave a normalised response [4] of 96.1%, a normalised response [5] of 77.2% and a normalised response [6] of 88.2%. It also gave a normalised response [7] of 97.6%, a normalised response [8] of 101% and a normalised response [9] of 102%. The normalised response [10] was 100%, the normalised response [11] was 23.3% and the normalised response [12] was 104%. For the same molecule, the normalised response [13] was 104%, the normalised response [14] was 155% and the normalised response [15] was 102%. For the same molecule, the normalised response [16] was 85.8%, the normalised response [17] was 94.6% and the normalised response [18] was 97.3%.
Molecule `S=c1[nH]cnc2nc[nH]c12` [Mercaptopurine] (10000 nM) has a normalised response [1] of 102%, a normalised response [2] of 121% and a normalised response [3] of 83.9%. It also gave a normalised response [4] of 95.7%, a normalised response [5] of 107% and a normalised response [6] of 108%. It also gave a normalised response [7] of 97.8%, a normalised response [8] of 91.5% and a normalised response [9] of 101%. For the same molecule, the normalised response [10] was 93.6%, the normalised response [11] was 89.1% and the normalised response [12] was 101%. The normalised response [13] was 118%, the normalised response [14] was 185% and the normalised response [15] was 96.1%. It also gave a normalised response [16] of 79.1%, a normalised response [17] of 101% and a normalised response [18] of 102%.
`COc1cccc2cc(-c3nc([C@H]4CC[C@H](C(=O)O)CC4)n4ncnc(N)c34)[nH]c12` [OSI-027] (10000 nM) showed a normalised response [1] of 107%, a normalised response [2] of 130% and a normalised response [3] of 101%. For the same molecule, the normalised response [4] was 130%, the normalised response [5] was 113% and the normalised response [6] was 115%. For the same molecule, the normalised response [7] was 99.7%, the normalised response [8] was 103% and the normalised response [9] was 94.5%. For the same molecule, the normalised response [10] was 109%, the normalised response [11] was 112% and the normalised response [12] was 96.9%. For the same molecule, the normalised response [13] was 89.2%, the normalised response [14] was 86% and the normalised response [15] was 72.5%. It also gave a normalised response [16] of 84%, a normalised response [17] of 94.2% and a normalised response [18] of 106%.
Work on `OC[C@H]1O[C@@H](n2cnc3c2N=CNC[C@H]3O)C[C@@H]1O` [Pentostatin] (1000 nM) yielded a normalised response [1] of 95.5%, a normalised response [2] of 97.8% and a normalised response [3] of 108%. For the same molecule, the normalised response [4] was 116%, the normalised response [5] was 111% and the normalised response [6] was 101%. For the same molecule, the normalised response [7] was 103%, the normalised response [8] was 107% and the normalised response [9] was 103%. It also gave a normalised response [10] of 102%, a normalised response [11] of 104% and a normalised response [12] of 103%. It also gave a normalised response [13] of 106%, a normalised response [14] of 100% and a normalised response [15] of 95.5%. For the same molecule, the normalised response [16] was 96%, the normalised response [17] was 98.9% and the normalised response [18] was 103%.
`OC[C@H]1O[C@@H](n2cnc3c2N=CNC[C@H]3O)C[C@@H]1O` [Pentostatin] (10000 nM) gave a normalised response [1] of 95.2%, a normalised response [2] of 103% and a normalised response [3] of 103%. It also gave a normalised response [4] of 118%, a normalised response [5] of 88.3% and a normalised response [6] of 110%. It also gave a normalised response [7] of 97.4%, a normalised response [8] of 104% and a normalised response [9] of 102%. The normalised response [10] was 97.6%, the normalised response [11] was 103% and the normalised response [12] was 104%. The normalised response [13] was 85.2%, the normalised response [14] was 112% and the normalised response [15] was 102%. It also gave a normalised response [16] of 90.8%, a normalised response [17] of 103% and a normalised response [18] of 101%.

— the supplement of paper PMC4862054
